# Article PMC11574108, “4-Furanylvinylquinoline derivative as a new scaffold for the design of oxidative stress initiator and glucose transporter inhibitor drugs” (Scientific Reports, 2024)
# Test system: HO-1
# Test: Western blot, HO-1 protein level
# Format: cell-based, human
# Settings: 24 h
# Procedure: The cells (500,000) were seeded in 35 mm Petri dishes (Nunc) and incubated in a solution of the tested compound (0.5 µM and 1 µM) for 24 h and 48 h. The cells were then dissociated using trypsin, collected in Eppendorf tubes, and centrifuged at 2,000 rpm. Next, cell pellets were resuspended in complete RIPA buffer containing a Halt Protease Inhibitor Cocktail and Halt Phosphatase Inhibitor Cocktail along with 0.5 M EDTA (all reagents from Thermo Fisher Scientific) and lysed on ice for 20 min. Afterward, the lysates were sonicated and centrifuged at 10,000 rpm for 10 min at 4 °C. The obtained supernatants were collected for further analysis. The protein concentration was determined using a Micro BCA™ Protein Assay Kit (Thermo Fisher Scientific) according to the manufacturer’s procedure. Equal amounts of proteins (16 µg) were electrophoresed on SDS-Page gels and transferred onto nitrocellulose membranes. Novex Sharp Pre-Stained Protein Standard (Thermo Fisher Scientific) was used as a colored molecular weight marker. The membranes were blocked in 5% non-fat milk prepared in TPBS (PBS supplemented by 0.1% Tween-20) for 1 h. After blocking, the membranes were cut, and then incubated with specific primary monoclonal antibodies (all purchased from Cell Signaling) overnight at 4 °C. The antibodies for the target proteins (CDK1 Mouse mAb #9116, p53 Mouse mAb #2524, FAS Mouse mAb #8023, GLUT-1 Rabbit mAb #12939, HO-1 Rabbit mAb #5853, p21^Waf1/Cip1 Rabbit mAb #2947, PARP #9542) were diluted 1:1000, while the antibodies for the reference proteins (GAPDH Rabbit mAb #2118, β-actin Mouse mAb #3700, and vinculin Rabbit mAb #13901) were diluted 1:2000. The following day, the membranes were washed in TPBS and incubated with horseradish peroxidase (HRP)-conjugated secondary antibodies (Anti-rabbit IgG, HRP-linked Antibody #7074 or Anti-mouse IgG, HRP-linked Antibody #7076) for 1 h at room temperature. The membranes were then washed in TPBS and incubated with a SuperSignal™ West Pico Chemiluminescent Substrate (Thermo Fisher Scientific). […]
smiles,measurement,setting,value
O=[N+]([O-])c1ccc(/C=C/c2ccnc3ccccc23)o1 [Compound 13],HO-1 protein level vs control,"HCT 116 p53+/+, 1 µM",more than twelve-fold
same,HO-1 protein level vs control,"HCT 116 p53-/-, 1 µM",six-fold
same,HO-1 protein level vs control,"U-251, 1 µM",four-fold
